# Assay results as given in patent US9447028B2, “Therapeutic aryl-amido-aryl compounds and their use” (King's College London, priority 2009, dated 2016).
# How the values were obtained:
# Format in all cases: cell-based
# [1] = target: T1, RARβ (Homo sapiens, UniProt P10826); assay: Transactivation assay for RAR beta (gal4-RAR fusion, luciferase reporter, COS-7 cells); conditions: ratio of test compound EC50 to that of atRA; inactive = no agonist action at the highest concentration tested
# T1 construct: gal4 (fusion partner); expressed in transfected cells; host or cells: COS-7
# T1 sequence (P10826 183-417 limits assumed): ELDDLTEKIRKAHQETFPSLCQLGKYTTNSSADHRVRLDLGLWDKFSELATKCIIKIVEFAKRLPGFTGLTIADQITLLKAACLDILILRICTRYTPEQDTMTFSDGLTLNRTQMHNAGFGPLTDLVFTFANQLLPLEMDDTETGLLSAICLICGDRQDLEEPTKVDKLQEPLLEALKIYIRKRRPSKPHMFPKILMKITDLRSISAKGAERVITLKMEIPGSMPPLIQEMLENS
# How it was run: (§1)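 COS-7 cells co-transfected with gal4–RAR ligand-binding-domain fusion and pFR-luc reporter, then treated with compound in phenol-red-free DMEM (1% DMSO) for about one day. Luciferase read after lysis with BrightGlo; EC50 values from replicate experiments given as a ratio of means.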
# [2] = target: T2, RARα (Homo sapiens, UniProt P10276); assay: Transactivation assay for RAR alpha (gal4-RAR fusion, luciferase reporter, COS-7 cells); conditions: for Improvement (RARα activity ratio) / Improvement (RARα/RARβ ratio): compared with XXX-03; for RARα/RARβ ratio (*): fold-selectivity for RARα over RARβ; for RARα activity ratio: ratio of test compound EC50 to that of atRA on the same plate
# T2 construct: gal4 (fusion partner); expressed in transfected cells; host or cells: COS-7
# T2 sequence (P10276 183-417 limits assumed): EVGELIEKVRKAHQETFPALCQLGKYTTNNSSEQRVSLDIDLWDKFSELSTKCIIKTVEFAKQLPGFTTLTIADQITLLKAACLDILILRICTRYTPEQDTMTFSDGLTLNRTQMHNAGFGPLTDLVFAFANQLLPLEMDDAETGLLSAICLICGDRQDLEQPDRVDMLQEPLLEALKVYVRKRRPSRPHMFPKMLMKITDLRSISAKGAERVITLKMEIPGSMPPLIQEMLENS
# How it was run: as §1
# [3] = target: T3, RARγ (Homo sapiens, UniProt P13631); assay: Transactivation assay for RAR gamma (gal4-RAR fusion, luciferase reporter, COS-7 cells); conditions: ratio of test compound EC50 to that of atRA; inactive = no agonist action at the highest concentration tested
# T3 construct: gal4 (fusion partner); expressed in transfected cells; host or cells: COS-7
# T3 sequence (P13631 185-419 limits assumed): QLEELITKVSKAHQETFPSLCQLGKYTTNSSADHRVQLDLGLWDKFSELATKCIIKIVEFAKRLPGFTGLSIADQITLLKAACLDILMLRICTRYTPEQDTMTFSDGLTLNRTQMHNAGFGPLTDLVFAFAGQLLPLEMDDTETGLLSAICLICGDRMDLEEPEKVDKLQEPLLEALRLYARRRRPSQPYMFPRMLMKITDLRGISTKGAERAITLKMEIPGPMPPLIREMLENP
# How it was run: as §1
SMILES,RARβ activity ratio [1],Improvement (RARα activity ratio) [2],Improvement (RARα/RARβ ratio) [2],RARγ activity ratio [3],increase in RARα activity ([2]; compared with XXX-01) [fold],increase in RARα versus RARβ selectivity ([2]; compared with XXX-01) [fold],RARα/RARβ ratio (*) [2],RARα activity ratio [2]
"O=C(O)c1ccc(NC(=O)c2cc(Cl)c(OCC3CC3)c(Cl)c2)cc1 [AAA-010, 4-(3,5-Dichloro-4-(cyclopropylmethoxy)benzamido)benzoic acid]",2530,~0.9-fold,~3.5-fold,inactive,–,–,–,–
"CCOc1c(Cl)cc(C(=O)Nc2ccc(C(=O)O)cc2)cc1C(F)(F)F [AAA-025, 4-(3-Chloro-4-ethoxy-5-(trifluoromethyl)benzamido)benzoic acid]",131,–,–,inactive,65,3,–,–
"CC(C)Oc1c(Cl)cc(C(=O)Nc2ccc(C(=O)O)c(F)c2)cc1C(F)(F)F [AAA-069, 4-(3-Chloro-4-isopropoxy-5-(trifluoromethyl)benzamido)-2-fluorobenzoic acid]",505,–,–,3380,–,–,421,1.2
"CC(C)Oc1cc(C(=O)Nc2ccc(C(=O)O)cc2)cc(C(F)(F)F)c1OC(C)C [AAA-120, 4-(3,4-Diisopropoxy-5-(trifluoromethyl)benzamido)benzoic acid]",142,–,–,2162,–,–,157,0.89
"CCOc1cc(C(=O)Nc2ccc(C(=O)O)c(C)c2)cc(OCC)c1Br [AAA-110, 4-(4-Bromo-3,5-diethoxybenzamido)-2-methylbenzoic acid]",1921,–,–,>12000,–,–,120,16
"Cc1cc(NC(=O)c2cc(Cl)c(OC3CCCC3)c(Cl)c2)ccc1C(=O)O [AAA-054, 4-(3,5-Dichloro-4-(cyclopentyloxy)benzamido)-2-methylbenzoic acid]",21,–,–,51,–,–,36,0.59
"CCCOc1c(Cl)cc(C(=O)Nc2ccc(C(=O)O)cc2)cc1Cl [AAA-003, 4-(3,5-Dichloro-4-propoxybenzamido)benzoic acid]",139,~6.0-fold,~1.3-fold,1200,–,–,9.3,–
"Cc1cc(NC(=O)c2cc(OC(C)C)c(Cl)c(OC(C)C)c2)ccc1C(=O)O [AAA-117, 4-(4-Chloro-3,5-diisopropoxybenzamido)-2-methylbenzoic acid]",273,–,–,29730,–,–,68,4
"CC(C)Oc1cc(C(=O)Nc2ccc(C(=O)O)cc2)cc(OC(C)C)c1F [AAA-119, 4-(4-Fluoro-3,5-diisopropoxybenzamido)benzoic acid]",5000,–,–,>42000,–,–,192,26
"CCOc1c(Br)cc(NC(=O)c2ccc(C(=O)O)cc2)cc1Br [AAA-014, 4-(3,5-Dibromo-4-ethoxyphenylcarbamoyl)benzoic acid]",1350,–,–,inactive,–,–,23.3,58
"CCC(CC)Oc1cc(C(=O)Nc2ccc(C(=O)O)c(F)c2)cc(Cl)c1OC [AAA-103, 4-(3-Chloro-4-methoxy-5-(pentan-3-yloxy)benzamido)-2-fluorobenzoic acid]",57,–,–,583,–,–,21,2.6
"CC(C)Oc1cc(C(=O)Nc2ccc(C(=O)O)c(F)c2)cc(Cl)c1OC(C)C [AAA-095, 4-(3-Chloro-4,5-diisopropoxybenzamido)-2-fluorobenzoic acid]",92,–,–,812,–,–,34,2.7
"COc1c(Cl)cc(C(=O)Nc2ccc(C(=O)O)c(F)c2)cc1OC(C)C [AAA-077, 4-(3-Chloro-5-isopropoxy-4-methoxybenzamido)-2-fluorobenzoic acid]",4082,–,–,117857,–,–,609,6.7
"COc1c(Cl)cc(C(=O)Nc2ccc(C(=O)O)cc2F)cc1C(F)(F)F [AAA-067, 4-(3-Chloro-4-methoxy-5-(trifluoromethyl)benzamido)-3-fluorobenzoic acid]",279,–,–,6047,–,–,6,50
"COc1c(Cl)cc(C(=O)Nc2ccc(C(=O)O)cc2)cc1OCC(C)(C)C [AAA-105, 4-(3-Chloro-4-methoxy-5-(neopentyloxy)benzamido)benzoic acid]",8.4,–,–,941,–,–,13,0.66
"CC(C)(C)Oc1cc(C(=O)Nc2ccc(C(=O)O)cc2)cc(Cl)c1OC(C)(C)C [AAA-048, 4-(3,4-Di-tert-butoxy-5-chlorobenzamido)benzoic acid]",38,–,–,162,–,–,44,0.86
"O=C(O)c1ccc(NC(=O)c2cc(Cl)c(OC3CCCCC3)c(OC3CCCCC3)c2)cc1 [AAA-047, 4-(3-Chloro-4,5-bis(cyclohexyloxy)benzamido)benzoic acid]",22,–,–,270,–,–,2,11
"CC(C)Oc1cc(C(=O)Nc2ccc(C(=O)O)cc2)cc(OC(C)C)c1Cl [AAA-112, 4-(4-Chloro-3,5-diisopropoxybenzamido)benzoic acid]",2464,–,–,1268,–,–,1212,2
"CC(C)(C)Oc1c(Cl)cc(C(=O)Nc2ccc(C(=O)O)cc2)cc1C(F)(F)F [AAA-037, 4-(4-(tert-Butoxy)-3-chloro-5-(trifluoromethyl)benzamido)benzoic acid]",324,–,–,>2600,–,–,1300,0.25
"O=C(O)c1ccc(NC(=O)c2cc(Cl)c(OCc3ccccc3)c(OCc3ccccc3)c2)cc1 [AAA-045, 4-(3,4-bis(benzyloxy)-5-chlorobenzamido)benzoic acid]",283,–,–,3651,–,–,39,7.3
"CCOc1cc(C(=O)Nc2ccc(C(=O)O)cc2)cc(Cl)c1OC(C)C [AAA-086, 4-(3-Chloro-5-ethoxy-4-isopropoxybenzamido)benzoic acid]",7,–,–,1203,–,–,3.1,2.1
"COc1c(OC(C)C)cc(C(=O)Nc2ccc(C(=O)O)c(C)c2)cc1OC(C)C [AAA-063, 4-(3,5-Diisopropoxy-4-methoxybenzamido)-2-methylbenzoic acid]",1686,–,–,6429,–,–,22,76
"CC(C)Oc1cc(C(=O)Nc2ccc(C(=O)O)c(O)c2)cc(OC(C)C)c1Br [AAA-109, 4-(4-Bromo-3,5-diisopropoxybenzamido)-2-hydroxybenzoic acid]",1583,–,–,792000,–,–,396,4
